# In ChEMBL document CHEMBL3860036, “Sesquiterpene Hydroquinones with Protein Tyrosine Phosphatase 1B Inhibitory Activities from a Dysidea sp. Marine Sponge Collected in Okinawa” (J Nat Prod, 2016):
# Biological target: T1, Tyrosine-protein phosphatase non-receptor type 1 (Homo sapiens, UniProt P18031)
# T1 sequence (P18031 whole entry): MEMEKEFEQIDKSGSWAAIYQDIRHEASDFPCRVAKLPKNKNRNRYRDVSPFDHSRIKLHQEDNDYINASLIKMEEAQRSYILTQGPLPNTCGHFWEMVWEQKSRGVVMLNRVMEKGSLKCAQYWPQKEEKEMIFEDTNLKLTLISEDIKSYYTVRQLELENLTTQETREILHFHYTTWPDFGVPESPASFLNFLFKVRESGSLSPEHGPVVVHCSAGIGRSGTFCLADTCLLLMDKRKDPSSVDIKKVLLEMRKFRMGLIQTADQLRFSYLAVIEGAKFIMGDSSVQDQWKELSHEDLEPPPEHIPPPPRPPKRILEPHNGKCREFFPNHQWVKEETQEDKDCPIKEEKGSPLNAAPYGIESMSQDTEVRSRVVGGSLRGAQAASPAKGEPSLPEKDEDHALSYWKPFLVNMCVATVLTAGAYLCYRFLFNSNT
# Settings: not given
row,SMILES,IC50
1,C=C1CCC[C@H]2[C@](C)(Cc3cc(O)ccc3OC(C)=O)[C@@H](C)CC[C@]12C,6.5 µM
2,C=C1CCC[C@H]2[C@](C)(Cc3cc(OC(C)=O)ccc3OC(C)=O)[C@@H](C)CC[C@]12C,14 µM
3,CC(=O)Oc1ccc(O)c(C[C@]2(C)[C@@H](C)CC[C@]3(C)C(C)=CCC[C@@H]23)c1,10 µM
4,CCC(=O)Oc1ccc(OC(=O)CC)c(C[C@]2(C)[C@@H](C)CC[C@]3(C)C(C)=CCC[C@@H]23)c1,8.8 µM
5,CC1=CCC[C@H]2[C@](C)(CC3=CC(=O)C=C(N)C3=O)[C@@H](C)CC[C@]12C,18 µM
6,CC(=O)Oc1ccc(O)cc1C[C@]1(C)[C@@H](C)CC[C@]2(C)C(C)=CCC[C@@H]12,9.5 µM
7,C=C1CCC[C@H]2[C@](C)(Cc3cc(O)ccc3O)[C@@H](C)CC[C@]12C,> 32 µM
8,CC1=CCC[C@H]2[C@](C)(Cc3cc(O)ccc3O)[C@@H](C)CC[C@]12C [AVAROL],12 µM
9,C=C1CCC[C@H]2[C@](C)(Cc3cc(OC(C)=O)ccc3O)[C@@H](C)CC[C@]12C,8.6 µM
10,C=C1CCC[C@H]2[C@](C)(Cc3cc(OC(=O)CC)ccc3OC(=O)CC)[C@@H](C)CC[C@]12C,9.4 µM
11,CC1=CCC[C@H]2[C@]3(C)Cc4cc(O)ccc4O[C@]3(C)CC[C@]12C,11 µM

# Biological target: T2, Tyrosine-protein phosphatase non-receptor type 1 (Homo sapiens) (UniProt P18031)
# T2 sequence (whole entry): T1 sequence (P18031 whole entry)
# Assay: Inhibition of recombinant human PTP1B (1 to 322 residues) expressed in Escherichia coli at 31 uM preincubated for 10 mins followed by pNPP substrate addition measured after 30 mins relative to control
# Settings: not given
row,SMILES,inhibition
1,COc1ccc(O)c(C[C@]2(C)[C@@H](C)CC[C@]3(C)C(C)=CCC[C@@H]23)c1,0%
2,C=C1CCC[C@H]2[C@](C)(Cc3cc(OC)ccc3O)[C@@H](C)CC[C@]12C,50%

# Biological target: T2, Tyrosine-protein phosphatase non-receptor type 1 (Homo sapiens)
# Settings: 32 uM
# Description: Inhibition of recombinant human PTP1B (1 to 322 residues) expressed in Escherichia coli at 32 uM preincubated for 10 mins followed by pNPP substrate addition measured after 30 mins relative to control
row,SMILES,inhibition
1,C=C1CCC[C@H]2[C@](C)(Cc3cc(O)ccc3O)[C@@H](C)CC[C@]12C,35%

# Biological target: T2, Tyrosine-protein phosphatase non-receptor type 1 (Homo sapiens)
# Settings: 25 uM
# Description: Inhibition of recombinant human PTP1B (1 to 322 residues) expressed in Escherichia coli at 25 uM preincubated for 10 mins followed by pNPP substrate addition measured after 30 mins relative to control
row,SMILES,inhibition
1,CC(=O)Oc1ccc(OC(C)=O)c(C[C@]2(C)[C@@H](C)CC[C@]3(C)C(C)=CCC[C@@H]23)c1,5%
